Assay results taken from patent US10813920B2, “Drug for treating corneal endothelium by promoting cell proliferation or inhibiting cell damage” (THE DOSHISHA, priority 2013, dated 2020).

Legend:
Format in all cases: cell-based
[1] = tested on: cultured monkey corneal endothelial cells; test: UV-induced cell death of cultured monkey corneal endothelial cells (phase difference microscope); conditions: UV 100 J/m^2; 9 hours after irradiation; 10 μM SB203580, 3 μM BIRB796, 1 μM PH-797804, 3 μM VX-702, 3 μM LY2228820, 3 μM TAK-715
Experimental: (§1) 1×10^5 cultured monkey corneal endothelial cells were seeded on a 12-well plate coated with an FNC Coating Mix and cultured for about 5 days until reaching confluence under the condition of 5% CO2 at 37° C.
Medium: Dulbecco's Modified Eagle Medium (DMEM, Gibco, 12320-032), 10% FBS, 1% Penicillin-Streptomycin (nacalai tesque, 26252-94)
(§2) Each inhibitor was then added at the concentration in the above-described Table and the cells were incubated for 16 hours under the condition of 5% CO2 at 37° C. The solvent of each reagent, Dimethyl Sulfoxide, Sterile-filtered (nacalai tesque, 13408-64) MSO, was added to the Control group and the UV group. Gibco DMEM, 1% P/S (penicillin/streptomycin) was used as the medium.
(§3) The cellular supernatant was then removed and the cells were irradiated with UV (100 J/m^2). After irradiation, cells were again added to a medium containing each inhibitor and cultured for 9 hours. The cell form and apoptosis were observed under a phase difference microscope.

[2] = tested on: cynomolgus monkey corneal endothelial cells; test: BrdU ELISA, one concentration per agent, monkey corneal endothelial cells (Example 9); conditions: 10 μM SB203580, 1 μM Semapimod, 3 μM BIRB796, 1 μM PH-797804, 3 μM VX-702, 3 μM LY2228820, 3 μM TAK-715, * p<0.01
Experimental: The medium was removed from a culture dish culturing cynomolgus monkey corneal endothelial cells. PBS (-) heated to 37° C. in advance was added thereto and the cells were washed. This operation was repeated twice. After removing the PBS (-), 0.05% Trypsin-EDTA (NacalaiTesque, 35554-64) was added and the cells were incubated for 10 minutes at 37° C. (5% CO2). The cells were then suspended in DMEM (Nacalai Tesque, 08456-94)+10% FBS (Biowest, S1820-500)+1% penicillin/streptomycin (Nacalai Tesque, catalog number: 26252-94) and centrifuged for 3 minutes at 1200 rpm to collect the cells. A 96-well plate was treated with an FNC coating mix (50 ml ([…], catalog number: 0407). The monkey corneal endothelial cells (lot: 20120404-3L-P9) were seeded in the coated 96-well plate at a ratio of 3000 cells/well. The cells were cultured for 30 hours at 37° C. (5% CO2). After 30 hours, the medium was removed and changed to a serum free medium: DMEM+1% P/S to culture the cells for 18 hours. […] SMC20120918), BIRB796 (Doramapimod) (Selleck Chemicals, catalog number: S1574, lot number: S157402), PH-797804 (Selleck Chemicals, catalog number: S2726, lot number: 01), VX-702 (Selleck Chemicals, catalog number: S6005, lot number: 02), LY2228820 (Selleck Chemicals, catalog number: S1494, lot number: 01), and TAK-715 (Selleck Chemical, catalog number: […] DMSO was added to the control. After 24 hours, a BrdU labeling reagent (Amersham Cell Proliferation Biotrak ELISA System, Version 2, GE Healthcare, catalog number: RPN250) was further added at a ratio of 1:1000 to the DMEM+10% FBS+1% P/S medium. […] DMSO was added to the control. After 24 hours, BrdU ELISA was carried out with Amersham Cell Proliferation Biotrak ELISA System, Version 2 (GE Healthcare, catalog number: RPN250). The absorbance at 450 nm was measured.

corneal endothelium = test: UV-induced apoptosis of corneal endothelium in rabbit sclerocornea segments, Annexin V and DAPI staining; conditions: rabbit corneal tissue; UV 100 J/m^2; stored 24 hours at 4° C.; 10 μM SB203580, 3 μM BIRB796, 1 μM PH-797804, 3 μM VX-702, 3 μM LY2228820, 3 μM TAK-715
Experimental: The experiment used a rabbit eye ball 0-24 hours after euthanasia. Sclerocornea was removed along the corneal limbus under a stereo microscope by using spring scissors. The crystalline lens and iris were removed to make a sclerocornea segment. […] After dividing a cornea, pretreatment was applied to the Control group for 2 hours in the dark with Optisol-GS® (Bausch & Lomb) (Lot. […] After washing the cornea twice with PBS(−), 100 J/m^2 of UV was irradiated onto the corneal endothelial cells, which were against stored for 24 hours at 4° C. […] The sclerocornea segments were washed with PBS(−), and MEBCYTO-Apoptosis kit (Annexin V-FITC kit) (MBL) (Lot. 027FA) was used for Annexin V and DAPI staining. The segments were immersed and immobilized for 30 minutes in −30° C. ice-cooled 95% ethanol. In order to remove ethanol components, PBS(−) was exchanged every 5 minutes and the segments were washed three times. An antifading agent was then added and enclosed. Annexin V and nuclei was observed by fluorescence imaging under a confocal microscope. The percentage of Annexin V positive cells were calculated in the above-described rabbit corneal tissue. *p<0.05 (Dunnett's test).

[3] = tested on: cultured monkey corneal endothelial cells; test: UV-induced apoptosis of cultured monkey corneal endothelial cells, Annexin V and DAPI staining; conditions: UV 100 J/m^2, after 9 hours of culture
Experimental: as §1, §2, §3
The cells, after 9 hours of culture, were stained for 20 minutes at 37° C. by using MEBCYTO-Apoptosis Kit (Annexin V-FITC Kit) (manufacturer: MBL, Code: 4700). The cells were then immobilized for 10 minutes with 95% acetic acid ethanol. After immobilization, the cells were stained for 30 minutes with DAPI Solution (manufacturer: DOJINDO, Code: GA098) and observed under a confocal microscope.

Compound	Cellular disorders (cell death) induced by UV [1]	BrdU uptake as a percentage with respect to the control (proliferation) [2]	Apoptosis induced by UV (annexin V staining) (corneal endothelium)	Apoptosis induced by UV (annexin V staining) [3]
CCc1nc(-c2cccc(C)c2)c(-c2ccnc(NC(=O)c3ccccc3)c2)s1 [TAK-715, 2-benzamide-4-[2-ethyl-4-(3-methylphenyl)thiazole-5-yl]pyridine]	suppressed	promotes proliferation	suppressed	suppressed
C[S+]([O-])c1ccc(-c2nc(-c3ccncc3)c(-c3ccc(F)cc3)[nH]2)cc1 (centres unmarked) [SB203580, 4-(4-fluorophenyl)-2-(4-methylsulfinylphenyl)-5-(4-pyridyl)-1H-imidazole]	suppressed	promotes proliferation	suppressed	suppressed
CC(C)(C)Cn1c(N)nc2ccc(-c3nc(C(C)(C)C)[nH]c3-c3ccc(F)cc3)nc21 [LY2228820, 5-(2-(tert-butyl)-5-(4-fluorophenyl)-1H-imidazole-4-yl)-3-neopentyl-3H-imidazo[4,5-b]pyridine-2-amine]	suppressed	promotes proliferation	suppressed	suppressed
CNC(=O)c1ccc(C)c(-n2c(C)cc(OCc3ccc(F)cc3F)c(Br)c2=O)c1 [PH-797804, 3-(3-bromo-4-((2,4-difluorobenzyl)oxy)-6-methyl-2-oxopyridine-1(2H)-yl)-N,4-dimethylbenzamide]	suppressed	promotes proliferation	suppressed	suppressed
Cc1ccc(-n2nc(C(C)(C)C)cc2NC(=O)Nc2ccc(OCCN3CCOCC3)c3ccccc23)cc1 [BIRB796, N-[3-tert-butyl-1-(4-methylphenyl)pyrazole-5-yl]-N′-[4-(2-morpholinoethoxy)-1-naphthyl]urea]	suppressed	promotes proliferation	suppressed	suppressed
